In US20070208166A1, “Tao Kinase Modulators And Method Of Use” (Exelixis, Inc., priority 2003, published 2007):

Assays:
Format in all cases: biochemical
[1] = target: T1, JIK (Homo sapiens, UniProt Q9H2K8); test: JIK Luciferase-Coupled Chemiluminescent Kinase assay (LCCA); details: 2 μM ATP, 10 μM MBP, 6 nM JIK, 2 hours; read-out: JIK inhibition IC50
T1 construct: 6 nM JIK (baculovirus expressed human KIAA 1361 kinase domain2-318); made in house
T1 sequence (Q9H2K8 2-318): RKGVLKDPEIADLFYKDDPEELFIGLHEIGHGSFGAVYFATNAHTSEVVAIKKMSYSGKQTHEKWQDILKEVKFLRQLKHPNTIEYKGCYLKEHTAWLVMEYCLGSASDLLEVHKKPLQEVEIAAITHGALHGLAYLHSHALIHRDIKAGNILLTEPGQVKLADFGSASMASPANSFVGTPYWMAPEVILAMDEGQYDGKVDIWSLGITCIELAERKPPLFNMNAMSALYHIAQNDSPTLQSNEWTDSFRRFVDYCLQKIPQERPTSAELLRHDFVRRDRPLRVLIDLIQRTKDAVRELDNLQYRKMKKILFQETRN
Outline: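 Baculovirus-expressed human KIAA 1361 kinase domain 2-318 at 6 nM, with 10 μM MBP and 2 μM ATP in Tris pH 7.5 with Mg/Mn, ran 2 h at ambient temperature. Remaining ATP was read by luciferase chemiluminescence. IC50 comes from a 10-concentration four-parameter fit.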

[2] = target: T2, TAO (Homo sapiens, UniProt Q9UL54); test: TAO Luciferase-Coupled Chemiluminescent Kinase assay (LCCA); details: 2 μM ATP, 10 μM MBP, 12 nM TAO, 2 hours; read-out: TAO inhibition IC50
T2 sequence (Q9UL54 1-1235): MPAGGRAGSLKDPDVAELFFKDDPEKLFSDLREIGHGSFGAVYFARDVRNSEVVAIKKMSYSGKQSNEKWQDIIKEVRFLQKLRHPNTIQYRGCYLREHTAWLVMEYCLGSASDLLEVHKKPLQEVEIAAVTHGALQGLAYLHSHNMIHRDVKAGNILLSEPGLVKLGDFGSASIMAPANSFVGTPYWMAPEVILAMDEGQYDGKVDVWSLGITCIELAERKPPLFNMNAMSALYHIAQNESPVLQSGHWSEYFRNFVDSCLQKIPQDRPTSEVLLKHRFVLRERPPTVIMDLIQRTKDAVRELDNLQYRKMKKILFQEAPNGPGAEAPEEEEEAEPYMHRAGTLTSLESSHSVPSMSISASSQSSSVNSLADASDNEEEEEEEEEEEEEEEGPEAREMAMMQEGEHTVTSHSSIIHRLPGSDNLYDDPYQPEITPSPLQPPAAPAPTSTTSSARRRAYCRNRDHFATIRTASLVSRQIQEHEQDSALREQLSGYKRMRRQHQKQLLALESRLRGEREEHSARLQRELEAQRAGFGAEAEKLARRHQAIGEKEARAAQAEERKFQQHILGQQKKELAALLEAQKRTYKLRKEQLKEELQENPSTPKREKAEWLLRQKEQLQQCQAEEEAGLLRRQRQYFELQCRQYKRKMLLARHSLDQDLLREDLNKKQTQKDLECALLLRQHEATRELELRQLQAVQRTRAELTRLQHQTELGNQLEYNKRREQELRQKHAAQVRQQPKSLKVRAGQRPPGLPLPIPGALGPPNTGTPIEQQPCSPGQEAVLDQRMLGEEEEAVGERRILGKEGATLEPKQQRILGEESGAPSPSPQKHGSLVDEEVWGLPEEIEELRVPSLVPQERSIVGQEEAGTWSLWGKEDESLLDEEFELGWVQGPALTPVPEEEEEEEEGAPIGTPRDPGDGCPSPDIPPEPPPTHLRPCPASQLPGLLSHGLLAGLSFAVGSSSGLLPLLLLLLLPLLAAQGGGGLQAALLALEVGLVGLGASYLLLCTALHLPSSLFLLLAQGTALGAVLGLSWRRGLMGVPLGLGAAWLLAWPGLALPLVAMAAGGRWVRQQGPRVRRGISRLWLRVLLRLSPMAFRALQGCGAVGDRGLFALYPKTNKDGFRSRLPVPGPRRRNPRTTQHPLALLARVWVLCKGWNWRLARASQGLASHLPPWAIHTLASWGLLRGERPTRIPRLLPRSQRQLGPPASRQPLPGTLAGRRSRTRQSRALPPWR

[3] = target: T3, KIAA 1361 (baculovirus expressed human KIAA 1361 kinase domain 2-322) (Homo sapiens, UniProt Q7L7X3); test: KIAA 1361 Luciferase-Coupled Chemiluminescent Kinase assay (LCCA); details: 2 μM ATP, 10 μM MBP, 12 nM KIAA 1361, 2 hours; read-out: KIAA1361 inhibition IC50
T3 construct: human KIAA 1361 kinase domain 2-322; made in house
T3 sequence (Q7L7X3 2-322): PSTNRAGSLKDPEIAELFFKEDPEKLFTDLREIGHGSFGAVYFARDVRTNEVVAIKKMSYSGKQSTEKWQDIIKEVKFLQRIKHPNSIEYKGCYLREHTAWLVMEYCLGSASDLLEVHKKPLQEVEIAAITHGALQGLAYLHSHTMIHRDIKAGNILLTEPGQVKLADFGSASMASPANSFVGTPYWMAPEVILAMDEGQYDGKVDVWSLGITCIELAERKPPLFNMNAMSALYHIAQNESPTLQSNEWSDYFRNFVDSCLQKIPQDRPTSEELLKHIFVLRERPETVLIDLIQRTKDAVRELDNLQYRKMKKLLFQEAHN
Outline: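 KIAA 1361 kinase domain 2-322 (baculovirus, 12 nM) with 2 μM ATP and 10 μM MBP in Tris pH 7.5, MgCl2, MnCl2; 2 h, ambient. Remaining ATP read by luciferase chemiluminescence; 10 concentrations, IC50 by four-parameter fit.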

| Compound | IC50 [1] [nM] | IC50 [2] [nM] | IC50 [3] [nM] |
| --- | --- | --- | --- |
| O=C(CNCc1ccc(-c2ccccc2)cc1)NC1CCCc2ccccc21 (stereo not drawn) [Entry 69, N˜2˜-(biphenyl-4-ylmethyl)-N-(1,2,3,4-tetrahydronaphthalen-1-yl)glycinamide] | > 5000 | > 5000 | > 5000 |
| O=C(CC(NC(=O)c1ccccc1)c1ccccc1)Nc1nc2ccc(O)cc2s1 (stereo not drawn) [Entry 97, N-{3-[(6-hydroxy-1,3-benzothiazol-2-yl)amino]-3-oxo-1-phenylpropyl)benzamide] | > 5000 | > 5000 | > 5000 |
| O=C(CNC(=O)N1CCN(c2ccccc2)CC1)NC1CCCc2ccccc21 (stereo not drawn) [Entry 91, N-[2-oxo-2-(1,2,3,4-tetrahydronaphthalen-1-ylamino)ethyl]-4-phenylpiperazine 1-carboxamide] | > 5000 | > 5000 | > 5000 |
| N-˜2˜-({[4-(1,1-dimethylethyl)phenyl]oxy}acetyl)-N-(1,2,3,4-tetrahydronaphthalen-1-yl)glycinamide [Entry 33] | 500 to 5000 | > 5000 | 500 to 5000 |
| CCc1ccc(-c2ccc(C(=O)NCC(=O)NC3CCCCC3)cc2)cc1 [Entry 53, N-[2-(cyclohexylamino)-2-oxoethyl]-4′-ethylbiphenyl-4-carboxamide] | > 5000 | > 5000 | > 5000 |
| O=C(CNC(=O)Nc1cc(C(F)(F)F)cc(C(F)(F)F)c1)NC1CCCc2ccccc21 (stereo not drawn) [Entry 47, N˜2˜-({[3,5-bis(trifluoromethyl)phenyl]amino}carbonyl)-N-(1,2,3,4-tetrahydronaphthalen-1-yl)glycinamide] | > 5000 | > 5000 | > 5000 |

The next lines start with the values.

| IC50 [1] [nM] | IC50 [2] [nM] | IC50 [3] [nM] | Compound |
| --- | --- | --- | --- |
| < 50 | 50 to 500 | < 50 | CCc1ccc(-c2ccc(C(=O)NC(C)C(=O)NC3CCc4ccccc4C3)cc2)cc1 (stereo not drawn) [Entry 5, 4′-ethyl-N-[1-methyl-2-oxo-2-(1,2,3,4-tetrahydronaphthalen-2-ylamino)ethyl]biphenyl-4-carboxamide] |
| 50 to 500 | 500 to 5000 | 50 to 500 | CCCCOc1ccc(C(=O)N[C@@H](Cc2c[nH]c3ccccc23)C(=O)NC2CCCc3ccccc32)cc1 (stereo partly drawn) [Entry 14, Nalpha-{[4-(butyloxy)phenyl]carbonyl}-N-(1,2,3,4-tetrahydronaphthalen-1-yl)tryptophanamide] |
| < 50 | 50 to 500 | < 50 | CCc1ccc(-c2ccc(C(=O)NCC(=O)Nc3cccc4ccccc34)cc2)cc1 [Entry 67, 4′-ethyl-N-[2-(naphthalen-1-ylamino)-2-oxoethyl]biphenyl-4-carboxamide] |
| 500 to 5000 | > 5000 | > 5000 | O=C(COc1ccc(Cl)cc1)NCC(=O)NC1CCCc2ccccc21 (stereo not drawn) [Entry 34, N˜2˜-{[(4-chlorophenyl)oxy]acetyl}-N-(1,2,3,4-tetrahydronaphthalen-1-yl)glycinamide] |
| 50 to 500 | 500 to 5000 | 500 to 5000 | CCCCOc1ccc(C(=O)NCC(=O)NC2CCCc3ccccc32)cc1 (stereo not drawn) [Entry 27, 4-(butyloxy)-N-[2-oxo-2-(1,2,3,4-tetrahydronaphthalen-1-ylamino)ethyl]benzamide] |
| 500 to 5000 | > 5000 | 500 to 5000 | CCCCc1ccc(C(=O)NCC(=O)NC2CCCc3ccccc32)cc1 (stereo not drawn) [Entry 29, 4-butyl-N-[2-oxo-2-(1,2,3,4-tetrahydronaphthalen-1-ylamino)ethyl]benzamide] |
| 50 to 500 | > 5000 | 500 to 5000 | COc1ccc(/C=C/C(=O)N[C@@H](COCc2ccccc2)C(=O)NC(c2ccccc2)c2ccccc2)cc1OC [Entry 30, N˜2˜-{(2E)-3-[3,4-bis(methyloxy)phenyl]prop-2-enoyl}-N-(diphenylmethyl)-O-(phenylmethyl)serinamide] |
| < 50 | 50 to 500 | 50 to 500 | O=C(COc1ccc(OCc2ccccc2)cc1)NCC(=O)NC1CCCc2ccccc21 (stereo not drawn) [Entry 2, N˜2˜-[({4-[(phenylmethyl)oxy]phenyl}oxy)acetyl]-N-(1,2,3,4-tetrahydronaphthalen-1-yl)glycinamide] |
| < 50 | 50 to 500 | < 50 | O=C(CNC(=O)c1ccc(OCc2ccccc2)cc1)NC1CCCc2ccccc21 (stereo not drawn) [Entry 51, N-[2-oxo-2-(1,2,3,4-tetrahydronaphthalen-1-ylamino)ethyl]-4-[(phenylmethyl)oxy]benzamide] |
